Measured values reported in patent publication US7579356B2, “Thia-tetraazaacenaphthylene kinase inhibitors” (Janssen Pharmaceutica NV, priority 2005, dated 2009).

Columns and labels:
[1] = test system: HeLa cervical adenocarcinoma; assay: Cell Proliferation Inhibition Assay, Hela (C14 method); assay type: cell-based; conditions: Homo sapiens, Table 7
Excerpt: (§1) Cell Proliferation Inhibition Assay
(§2) The ability of a test compound to inhibit unregulated cell proliferation may be determined by measuring incorporation of ^14C-labelled thymidine into newly synthesized DNA within cell lines derived from carcinomas originating from several tissues. Accordingly, the effect of a test compound on proliferation of cells with a variety of phenotypes may be determined.
(§3) Carcinoma cell lines used include the HeLa cervical adenocarcinoma from the American Type Culture Collection (ATCC Cat. #CCL2), A375 malignant melanoma (ATCC Cat. #CRL-1619), HCT-116 colon carcinoma (ATCC Cat. #CCL-247), SKBR3 breast carcinoma (ATCC Cat. #HTB-30) and BT474 breast carcinoma (ATCC Cat. #HTB-20).
(§4) The carcinoma cells were trypsinized and counted. The cells (3000-8000 count) were added to each well of a 96-well CytoStar tissue culture treated scintillating microplate (Amersham #RPNQ0160) in complete medium (100 μL) and the plate was then incubated in complete medium for 24 hrs at 37° C. in an inert atmosphere containing 5% CO2.
(§5) Test compound (1 μL) in 100% DMSO was added to the plate test-wells with DMSO only added to control-wells. The plate was incubated in complete medium for a second 24 hr period at 37° C. in an atmosphere containing 5% CO2.
(§6) An aliquot of a solution of Methyl ^14C-thymidine (56 mC/mmol) (NEN #NEC568 or AMersham #CFA532) and complete medium (20 uL to provide 0.2 μCl/well) was then added to each well and the plate was incubated for a third 24 hr period at 37° C. in an atmosphere containing 5% CO2.
(§7) The plate contents were then discarded, the plate washed twice with PBS (200 μL) and then PBS (200 μL) was added to each well. The plate was sealed and the degree of methyl ^14C-thymidine incorporation was quantified on a Packard Top Count.
(§8) Cell proliferation of the Hela cell line was measured using the ATP-Lite method as described in the ATP Lite Kit (Perkin-Elmer Kit Number 6106941) or the C^14 method as described above. Cell proliferation of the other cell lines was measured using the C^14 method.

HER-2 = target: T1, HER-2 (Homo sapiens, UniProt P04626); assay: HER-2 Kinase Assay; assay type: biochemical; conditions: value in parentheses
T1 construct: His6 with thrombin site (N); purchased Proqinase (Freiburg, Germany)
Outline: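 GST/HIS6-tagged HER-2 aa 679–1255 kinase with biotinylated polyGluTyr (1.5 ng/μL), 1 μM ATP plus γ-33P-ATP, Mg2+/Mn2+, DTT, Hepes pH 7.5; 1 h at 30 °C. Substrate phosphorylation captured on streptavidin scintillation plates after EDTA/PBS washes; values are % inhibition at 1 μM or IC50.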

A375 malignant melanoma = assay: Cell Proliferation Inhibition Assay, A375 (14C-thymidine); assay type: cell-based; conditions: Homo sapiens, A-375
Excerpt: as §1, §2, §3, §4, §5, §6, §7, §8

T1 sequence (P04626 679-1255): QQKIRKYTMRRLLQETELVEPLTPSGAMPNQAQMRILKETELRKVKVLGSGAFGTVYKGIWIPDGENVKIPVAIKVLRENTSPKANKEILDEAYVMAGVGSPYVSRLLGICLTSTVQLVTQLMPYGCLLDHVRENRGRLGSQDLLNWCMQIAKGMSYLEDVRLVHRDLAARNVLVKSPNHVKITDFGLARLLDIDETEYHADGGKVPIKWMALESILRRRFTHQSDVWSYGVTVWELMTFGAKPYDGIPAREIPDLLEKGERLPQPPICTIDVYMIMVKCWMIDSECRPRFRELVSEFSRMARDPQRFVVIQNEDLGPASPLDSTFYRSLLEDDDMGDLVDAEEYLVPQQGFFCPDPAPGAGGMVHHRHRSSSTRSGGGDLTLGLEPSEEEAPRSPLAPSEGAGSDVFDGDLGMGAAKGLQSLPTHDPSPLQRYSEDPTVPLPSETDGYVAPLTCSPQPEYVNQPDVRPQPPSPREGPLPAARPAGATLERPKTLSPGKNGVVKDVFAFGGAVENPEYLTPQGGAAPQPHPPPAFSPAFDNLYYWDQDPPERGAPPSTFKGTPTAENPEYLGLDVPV

Cc1ccc(Br)cc1N1C(=O)Nc2c(C(=O)NC3CCN(C)CC3)sc3ncnc1c23 [Cpd 117, 5-(5-bromo-2-methyl-phenyl)-4-oxo-4,5-dihydro-3H-1-thia-3,5,6,8-tetraaza-acenaphthylene-2-carboxylic acid (1-methyl-piperidin-4-yl)-amide]
IC50 [1]: ≥ 100 µM | IC50 (HER-2): 13 µM | IC50 (A375 malignant melanoma): 100 µM

CN1CCC(NC(=O)c2sc3ncnc4c3c2NC(=O)N4c2ccc(Oc3ccc(F)cc3)cc2)CC1 [Cpd 118, 5-[4-(4-fluoro-phenoxy)-phenyl]-4-oxo-4,5-dihydro-3H-1-thia-3,5,6,8-tetraaza-acenaphthylene-2-carboxylic acid (1-methyl-piperidin-4-yl)-amide]
IC50 [1]: ≥ 10 µM | IC50 (HER-2): ~100 µM | IC50 (A375 malignant melanoma): 10 µM
